According to US7799785B2, “Substituted tetracyclic tetahydrofuran, pyrrolidine and tetrahydrothiophene derivatives” (Janssen Pharmaceutica NV, priority 2004, dated 2010):

Experiments:
NET = target: T1, NET (Rattus norvegicus, UniProt Q63380); assay: In vitro determination of NET reuptake inhibition ([3H]Nixosetine binding, rat brain cortex membranes)
T1 construct: Cortex from rat brain was collected and homogenised; from tissue; host or cells: rat brain cortex homogenate/membranes
Method: In vitro Determination of NET Reuptake Inhibition
Cortex from rat brain was collected and homogenised using an Ultra-Turrax T25 and a Dual homogeniser in ice-cold homogenising buffer containing Tris, NaCl and KCl (50 mM, 120 mM and 5 mM, respectively, pH 7.4) prior to dilution to an appropriate protein concentration optimised for specific and non-specific binding. […] Membrane-bound activity was detected by filtration through a Packard Filtermate harvester onto GF/B Unifilterplates, washed with ice-cold Tris-HCl buffer, containing NaCl and KCl (50 mM, 120 mM and 4 mM; pH 7.4; 6×0.5 ml). Filters were allowed to dry for 24 h before adding scintillation fluid. Scintillation fluid was allowed to saturate filters for 24 h before counting in a Topcount scintillation counter. Percentage specific bound and competition binding curves were calculated using S-Plus software (Insightful).

[1] = target: T2, human cloned 5-HT2A receptor, expressed in L929 cells (Homo sapiens, UniProt P28223); assay: In vitro radioligand binding affinity for 5-HT2A receptor ([125I]R91150); settings: read-out: h-5HT2A (converted)
T2 construct: expressed in transfected cells; host or cells: L929 cells
Method: (§1) In vitro Binding Affinity for 5-HT2A and 5-HT2C Receptors
The interaction of the compounds of Formula (I) with 5-HT2A and 5-HT2C receptors was assessed in in vitro radioligand binding experiments. In general, a low concentration of a radioligand with a high binding affinity for the receptor is incubated with a sample of a tissue preparation enriched in a particular receptor (1 to 5 mg tissue) in a buffered medium (0.2 to 5 ml). During the incubation, the radioligands bind to the receptor. When equilibrium of binding is reached, the receptor bound radioactivity is separated from the non-bound radioactivity, and the receptor bound activity is counted. The interaction of the test compounds with the receptors is assessed in competition binding experiments. Various concentrations of the test compound are added to the incubation mixture containing the tissue preparation and the radioligand. Binding of the radioligand will be inhibited by the test compound in proportion to its binding affinity and its concentration. The affinities of the compounds for the 5-HT2 receptors were measured by means of radioligand binding studies conducted with: (a) human cloned 5-HT2A receptor, expressed in L929 cells using [^125I]R91150 as radioligand and (b) human cloned 5-HT2C receptor, expressed in CHO cells using [^3H]mesulergine as radioligand.

[2] = target: T3, human Dopamine D2L receptor (Homo sapiens, UniProt P14416); assay: In vitro binding affinity for human D2L receptor ([3H]Spiperone); settings: human D2L receptor-transfected CHO cell membranes
T3 construct: expressed in transfected cells; host or cells: CHO cells
Method: In vitro Binding Affinity for Human D2L Receptor
Frozen membranes of human Dopamine D2L receptor-transfected CHO cells were thawed, briefly homogenised using an Ultra-Turrax T25 homogeniser and diluted in Tris-HCl assay buffer containing NaCl, CaCl2, MgCl2, KCl (50, 120, 2, 1, and 5 mM respectively, adjusted to pH 7.7 with HCl) to an appropriate protein concentration optimised for specific and non-specific binding. Radioligand [^3H]Spiperone (NEN, specific activity ˜70 Ci/mmol) was diluted in assay buffer at a concentration of 2 nmol/L. Prepared radioligand (50 μl), along with 50 μl of either the 10% DMSO control, Butaclamol (10^−6 mol/l final concentration), or compound of interest, was then incubated (30 min, 37° C.) with 400 μl of the prepared membrane solution. Membrane-bound activity was filtered through a Packard Filtermate harvester onto GF/B Unifilterplates and washed with ice-cold Tris-HCl buffer (50 mM; pH 7.7; 6×0.5 ml). Filters were allowed to dry before adding scintillation fluid and counting in a Topcount scintillation counter. Percentage specific bound and competition binding curves were calculated using S-Plus software (Insightful).

[3] = target: T4, human cloned 5-HT2C receptor, expressed in CHO cells (Homo sapiens, UniProt P28335); assay: In vitro radioligand binding affinity for 5-HT2C receptor ([3H]mesulergine)
T4 construct: expressed in transfected cells; host or cells: CHO cells
T4 sequence (P28335 33-458): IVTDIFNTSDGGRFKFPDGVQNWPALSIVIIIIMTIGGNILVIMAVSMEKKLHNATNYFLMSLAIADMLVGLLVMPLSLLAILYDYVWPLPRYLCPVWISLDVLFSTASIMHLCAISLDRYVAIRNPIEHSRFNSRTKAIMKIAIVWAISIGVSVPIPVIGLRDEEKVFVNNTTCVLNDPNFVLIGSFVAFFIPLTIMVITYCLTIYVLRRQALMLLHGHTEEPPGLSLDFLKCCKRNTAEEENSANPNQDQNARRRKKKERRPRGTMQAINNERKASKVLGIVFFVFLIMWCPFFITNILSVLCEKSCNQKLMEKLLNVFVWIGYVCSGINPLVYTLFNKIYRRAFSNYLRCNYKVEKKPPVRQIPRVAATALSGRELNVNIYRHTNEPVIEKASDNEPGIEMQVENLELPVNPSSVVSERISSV
Method: as §1
The interaction of the compounds of Formula (I) with 5-HT2A and 5-HT2C receptors was assessed in in vitro radioligand binding experiments. […] During the incubation, the radioligands bind to the receptor. When equilibrium of binding is reached, the receptor bound radioactivity is separated from the non-bound radioactivity, and the receptor bound activity is counted. The interaction of the test compounds with the receptors is assessed in competition binding experiments. Various concentrations of the test compound are added to the incubation mixture containing the tissue preparation and the radioligand. Binding of the radioligand will be inhibited by the test compound in proportion to its binding affinity and its concentration.

T2 sequence (P28223 whole entry): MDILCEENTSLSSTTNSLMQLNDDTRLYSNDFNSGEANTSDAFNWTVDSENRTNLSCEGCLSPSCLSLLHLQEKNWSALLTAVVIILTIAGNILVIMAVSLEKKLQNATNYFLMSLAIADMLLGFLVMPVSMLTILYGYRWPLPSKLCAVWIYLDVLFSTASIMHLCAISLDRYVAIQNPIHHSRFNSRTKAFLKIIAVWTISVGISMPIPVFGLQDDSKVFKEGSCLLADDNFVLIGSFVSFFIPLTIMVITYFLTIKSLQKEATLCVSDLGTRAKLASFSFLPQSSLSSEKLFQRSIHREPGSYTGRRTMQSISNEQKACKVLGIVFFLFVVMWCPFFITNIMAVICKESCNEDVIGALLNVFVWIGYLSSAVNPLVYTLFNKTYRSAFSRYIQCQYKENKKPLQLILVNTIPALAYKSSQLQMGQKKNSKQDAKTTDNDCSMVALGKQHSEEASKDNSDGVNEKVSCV
T1 sequence (Q63380 1-617): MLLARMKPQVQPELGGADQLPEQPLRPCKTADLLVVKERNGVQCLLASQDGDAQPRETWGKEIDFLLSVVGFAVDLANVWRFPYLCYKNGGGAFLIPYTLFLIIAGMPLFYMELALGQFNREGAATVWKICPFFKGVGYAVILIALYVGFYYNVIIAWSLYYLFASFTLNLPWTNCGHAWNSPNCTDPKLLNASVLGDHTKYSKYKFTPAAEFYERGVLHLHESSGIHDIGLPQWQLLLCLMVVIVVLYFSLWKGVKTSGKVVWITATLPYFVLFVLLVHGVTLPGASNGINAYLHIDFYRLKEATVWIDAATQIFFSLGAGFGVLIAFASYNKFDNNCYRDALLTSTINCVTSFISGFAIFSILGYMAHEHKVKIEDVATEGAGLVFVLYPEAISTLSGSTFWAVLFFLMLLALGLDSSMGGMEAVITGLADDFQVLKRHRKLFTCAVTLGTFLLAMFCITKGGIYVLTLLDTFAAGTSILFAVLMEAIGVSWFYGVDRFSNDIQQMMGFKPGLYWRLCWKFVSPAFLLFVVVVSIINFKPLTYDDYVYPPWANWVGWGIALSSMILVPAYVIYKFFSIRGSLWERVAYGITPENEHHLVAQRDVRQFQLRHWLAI
T3 sequence (P14416 whole entry): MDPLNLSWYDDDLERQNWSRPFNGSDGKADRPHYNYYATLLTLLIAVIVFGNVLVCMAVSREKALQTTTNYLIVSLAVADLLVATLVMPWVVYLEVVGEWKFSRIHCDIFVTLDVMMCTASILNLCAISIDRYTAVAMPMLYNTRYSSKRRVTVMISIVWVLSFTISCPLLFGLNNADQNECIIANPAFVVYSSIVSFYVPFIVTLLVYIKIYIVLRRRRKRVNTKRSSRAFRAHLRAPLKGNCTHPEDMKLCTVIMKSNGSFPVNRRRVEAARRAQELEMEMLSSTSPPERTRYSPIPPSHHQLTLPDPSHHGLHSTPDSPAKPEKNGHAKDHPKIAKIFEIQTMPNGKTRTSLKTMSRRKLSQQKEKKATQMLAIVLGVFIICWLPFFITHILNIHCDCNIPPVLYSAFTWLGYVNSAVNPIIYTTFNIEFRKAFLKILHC

Row | SMILES | IC50 (NET) [nM] | IC50 [1] [nM] | IC50 [2] [nM] | IC50 [3] [nM] | NET Reuptake Inhibition (NET) | melting point [°C]
1 | CN[C@@H]1CO[C@@H]2c3cc(F)ccc3Cc3ccccc3[C@H]2C1 (relative stereo) [compound 35, (3S *,4aR*,13bS*)-12-fluoro-N-methyl-2,3,4,4a,9,13b-hexahydrodibenzo[3,4:6,7]-cyclohepta[1,2-b]pyran-3-amine] | > 1000 | > 1000 | > 1000 |  |  | 
2 | COC(=O)N1[C@@H](CN(C)C)C[C@@H]2c3ccccc3Cc3ccc(F)cc3[C@H]21 [36a, Methyl(2R,3aR,12bS)-2-[(dimethylamino)methyl]-11-fluoro-3,3a,8,12b-tetrahydro-dibenzo[3,4:6,7]cyclohepta[1,2-b]pyrrole-1(2H)-carboxylate] | 692 | > 1000 | > 1000 | > 1000 |  | 
3 | CN(C)C[C@H]1C[C@@H]2c3ccccc3Cc3ccc(F)cc3[C@H]2N1C=O [36c, (2R,3aR,12bS)-2-[(dimethylamino)methyl]-11-fluoro-3,3a,8,12b-tetrahydrodibenzo[3,4:6,7]cyclohepta[1,2-b]pyrrole-1(2H)-carbaldehyde] | 224 | 550 | 4900 | 77.6 |  | 
4 | CN(CCO)C[C@H]1C[C@@H]2c3ccccc3Cc3ccc(F)cc3[C@H]2N1 [43b, 2-[{[(2R,3aR,12bS)-11-fluoro-1,2,3,3a,8,12b-hexahydrodibenzo[3,4:6,7]-cyclohepta[1,2-b]pyrrol-2-yl]methyl}(methyl)amino]-ethanol] | 15.8 | 67.6 | 437 | 89.1 |  | 
5 | CN1CC(=O)N2[C@H](C[C@@H]3c4ccccc4Cc4ccc(F)cc4[C@H]32)C1 [compound 13, (5aS,14bR,15aR)-7-fluoro-2-methyl-1,2,3,5a,10,14b,15,15a-octahydro-4H-dibenzo-[3′,4′:6′,7′]cyclohepta[1′,2′:4,5]pyrrolo[1,2-a]pyrazin-4-one] |  |  |  |  | <5 | 139 to 141
6 | N[C@@H]1CO[C@H]2c3cc(F)ccc3Cc3ccccc3[C@H]2C1 [compound 30, (3S,4aR,13bR)-12-fluoro-2,3,4,4a,9,13b-hexahydrodibenzo[3,4:6,7]cyclohepta-[1,2-b]pyran-3-amine] | 302 |  |  |  |  | 74 to 76
